Results taken from patent US20210139484A1, “DIHYDROISOQUINOLINE-2(1H)-CARBOXAMIDE AND RELATED COMPOUNDS AND THEIR USE IN TREATING MEDICAL CONDITIONS” (GOSSAMER BIO SERVICES, INC., priority 2018, published 2021).

Target: T1, human HPK1 protein (Homo sapiens, UniProt Q92918)
T1 construct: recombinant human HPK1 protein (a.a. 1-346) was expressed in Sf9 insect cells; GST (N); purchased Signalchem M23-11G; host or cells: Sf9 insect cells (baculovirus)
T1 sequence (Q92918 1-346): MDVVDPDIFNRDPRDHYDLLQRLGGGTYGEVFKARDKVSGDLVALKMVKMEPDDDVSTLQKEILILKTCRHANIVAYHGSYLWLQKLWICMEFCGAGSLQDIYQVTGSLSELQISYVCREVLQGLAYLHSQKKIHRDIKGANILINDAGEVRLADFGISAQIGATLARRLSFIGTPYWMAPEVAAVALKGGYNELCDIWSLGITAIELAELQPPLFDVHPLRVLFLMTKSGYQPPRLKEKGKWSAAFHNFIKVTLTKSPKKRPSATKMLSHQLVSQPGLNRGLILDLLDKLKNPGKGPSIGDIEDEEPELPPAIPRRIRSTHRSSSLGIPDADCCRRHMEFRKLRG
Assay: Human HPK1 protein TR-FRET assay
Type: biochemical
Details: 1 mM ATP, Table 20
In short: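 GST-tagged HPK1 (a.a. 1-346, Sf9-expressed) at 10 nM phosphorylated 100 nM ULight CREBtide with 1 mM ATP in Tris pH 7.5, MgCl2, NP-40, DTT, 1% DMSO, 60 minutes at room temperature. Phospho-Ser133 detected by Eu-antibody TR-FRET (665/615 nm ratio); IC50 from 4-parameter fit against DMSO control.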

IC50 [nM] | Structure (SMILES)
< 500 | C[C@H]1c2cc(Oc3ccnc4[nH]c(C5(O)COC5)cc34)ccc2CCN1C(=O)Nc1ccc(CN2CCNCC2)c(C(F)(F)F)c1 [XIII-7]
< 500 | C[C@H]1c2cc(Oc3ccnc4[nH]c(CO)cc34)ccc2CCN1C(=O)Nc1ccc(CN2CCNCC2)c(C(F)(F)F)c1 [XIII-8]
< 500 | C[C@H]1c2cc(Oc3ccnc4[nH]c(CO)cc34)ccc2CCN1C(=O)Nc1ccc(CN2CCN(C)CC2)c(C(F)F)c1 [XIII-9]
< 500 | C[C@H]1c2cc(Oc3ccnc4[nH]c(C5(O)COC5)cc34)ccc2CCN1C(=O)Nc1ccc(CN2CCN(C)CC2)c(C(F)F)c1 [XIII-10]
< 500 | C[C@H]1c2cc(Oc3ccnc4[nH]c(C5(O)COC5)cc34)ccc2CCN1C(=O)Nc1ccc(CN2CCN(CCO)CC2)c(C(F)F)c1 [XIII-11]
< 500 | C[C@H]1c2cc(Oc3ccnc4[nH]c(CO)cc34)ccc2CCN1C(=O)Nc1ccc(CN2CCN(CCO)CC2)c(C(F)F)c1 [XIII-12]
< 500 | CCN1CCN(Cc2ccc(NC(=O)N3CCc4ccc(Oc5cc(NC(=O)OC)ncc5F)cc4[C@@H]3C)cc2C(F)(F)F)CC1 [XIII-13]
< 500 | CCN1CCN(Cc2ccc(NC(=O)N3CCc4ccc(Oc5cc(NC(=O)c6ccnnc6)ncc5F)cc4[C@@H]3C)cc2C(F)(F)F)CC1 [XIII-14]
< 500 | CCN1CCN(Cc2ccc(NC(=O)N3CCc4ccc(Oc5cc(NC(=O)C6CC6)ncc5F)cc4[C@@H]3C)cc2C(F)(F)F)CC1 [XIII-15]
< 500 | CCN1CCN(Cc2ccc(NC(=O)N3CCc4ccc(Oc5c(F)cnc6[nH]c(C7(O)COC7)cc56)cc4[C@@H]3C)cc2C(F)(F)F)CC1 [XIII-16]
< 500 | CCN1CCN(Cc2ccc(NC(=O)N3CCc4ccc(Oc5cc(NC(=O)c6cnn(C)c6)ncc5F)cc4[C@@H]3C)cc2C(F)(F)F)CC1 [XIII-17]
< 500 | CCC1CN(C(=O)Nc2ccc(CN3CCN(CC)CC3)c(C(F)(F)F)c2)Cc2cc(Oc3ncnc4[nH]c(C)cc34)cnc21 (centres unmarked) [XIV-3]
< 500 | CCC1CN(C(=O)Nc2ccc(CN3CCN(CC)CC3)c(C(F)(F)F)c2)Cc2cc(Oc3ncnc4[nH]c(C)cc34)cnc21 (centres unmarked) [XIV-4]
< 500 | CC[C@@H]1CN(C(=O)Nc2cnc(CN3CCN(CC)CC3)c(C(F)(F)F)c2)Cc2cc(Oc3ccnc4[nH]ccc34)cnc21 [XIV-9]
< 500 | CC[C@H]1CN(C(=O)Nc2cnc(CN3CCN(CC)CC3)c(C(F)(F)F)c2)Cc2cc(Oc3ccnc4[nH]ccc34)cnc21 [XIV-10]
< 500 | CCN1CCN(Cc2ccc(NC(=O)N3Cc4cc(Oc5ccnc6[nH]c(CO)cc56)cnc4[C@H](C)C3)cc2C(F)(F)F)CC1 [XIV-14]
< 500 | CC[C@@H]1CN(C(=O)Nc2ccc(CN3CCN(CC)CC3)c(C(F)(F)F)c2)Cc2cc(Oc3ccnc4[nH]c(C#N)cc34)cnc21 [XIV-19]
< 500 | CC[C@H]1CN(C(=O)Nc2ccc(CN3CCN(CC)CC3)c(C(F)(F)F)c2)Cc2cc(Oc3ccnc4[nH]c(C#N)cc34)cnc21 [XIV-20]
< 500 | CC[C@H]1CN(C(=O)Nc2ccc(CN3CCN(CC)CC3)c(C(F)(F)F)c2)Cc2cc(Oc3ccnc4[nH]c(CCOC)cc34)cnc21 [XIV-22]

IC50 [nM] | Structure (SMILES)
< 500 | CC[C@@H]1CN(C(=O)Nc2ccc(CN3CCN(CC)CC3)c(C(F)(F)F)c2)Cc2cc(Oc3ccnc4[nH]c(C5CC5)cc34)cnc21 [XIV-23]
< 500 | CC[C@@H]1CN(C(=O)Nc2cnc(CN3CCN(CC)CC3)c(C(F)(F)F)c2)Cc2cc(Oc3ccnc4[nH]c(CCOC)cc34)cnc21 [XIV-26]
< 500 | CC[C@@H]1CN(C(=O)Nc2ccc(CN3CCN(CC)CC3)c(C(F)(F)F)c2)Cc2cc(Oc3ccnc4[nH]c(CO)cc34)cnc21 [XIV-28]
< 500 | CC[C@@H]1CN(C(=O)Nc2cnc(OC3CCN(C)CC3)c(C(F)(F)F)c2)Cc2cc(Oc3ccnc4[nH]c(CCOC)cc34)cnc21 [XIV-34]
< 500 | CC[C@H]1CN(C(=O)Nc2cnc(OC3CCN(C)CC3)c(C(F)(F)F)c2)Cc2cc(Oc3ccnc4[nH]c(CCOC)cc34)cnc21 [XIV-35]
< 500 | CC[C@@H]1CN(C(=O)Nc2ccc(CN3CCN(CC)CC3)c(C(F)(F)F)c2)Cc2cc(Oc3ncnc4[nH]c(C5CC5)cc34)cnc21 [XIV-37]
< 500 | CC[C@@H]1CN(C(=O)Nc2ccc(CN3CCN(CC)CC3)c(C(F)(F)F)c2)Cc2cc(Oc3c(F)cnc4[nH]c(-c5cnn(C)c5)cc34)cnc21 [XIV-39]
< 500 | CCC1CN(C(=O)Nc2ccc(CN3CCN(CC)CC3)c(C(F)(F)F)c2)Cc2cc(Oc3ccnc4[nH]c(C(C)O)cc34)cnc21 (centres unmarked) [XIV-40]
5000 to 10000 | CCC1CN(C(=O)Nc2ccc(CN3CCN(CC)CC3)c(C(F)(F)F)c2)Cc2cc(Oc3ccnc4[nH]c(C(C)OC)cc34)cnc21 (centres unmarked) [XIV-41]
< 500 | CC[C@@H]1CN(C(=O)Nc2cnc(OC3CCN(C)CC3)c(C(F)(F)F)c2)Cc2cc(Oc3ccnc4[nH]c(C#N)cc34)cnc21 [XIV-42]
< 500 | CC[C@@H]1CN(C(=O)Nc2cnc(OC3CCN(C)CC3)c(C(F)(F)F)c2)Cc2cc(Oc3ccnc4[nH]c(C5CC5)cc34)cnc21 [XIV-43]
< 500 | CC[C@@H]1CN(C(=O)Nc2ccc(CN3CCNCC3)c(C(F)(F)F)c2)Cc2cc(Oc3ccnc4[nH]c(CO)cc34)cnc21 [XIV-45]
< 500 | CC[C@H]1CN(C(=O)Nc2ccc(CN3CCN(C)CC3)c(C(F)(F)F)c2)Cc2cc(Oc3ccnc4[nH]c(CO)cc34)cnc21 [XIV-46]
< 500 | CC[C@H]1CN(C(=O)Nc2ccc(CN3CCN(C)CC3)c(C(F)F)c2)Cc2cc(Oc3ccnc4[nH]c(CO)cc34)cnc21 [XIV-47]
< 500 | CC[C@@H]1CN(C(=O)Nc2ccc(CN3CCNCC3)c(C(F)(F)F)c2)Cc2cc(Oc3ccnc4[nH]c(C5(O)COC5)cc34)cnc21 [XIV-48]
< 500 | CC[C@@H]1CN(C(=O)Nc2ccc(CN3CCN(C)CC3)c(C(F)(F)F)c2)Cc2cc(Oc3ccnc4[nH]c(C5(O)COC5)cc34)cnc21 [XIV-50]
< 500 | CC[C@H]1CN(C(=O)Nc2ccc(CN3CCN(C)CC3)c(C(F)(F)F)c2)Cc2cc(Oc3ccnc4[nH]c(C5(O)COC5)cc34)cnc21 [XIV-51]
< 500 | CC[C@H]1CN(C(=O)Nc2ccc(CN3CCN(C)CC3)c(C(F)F)c2)Cc2cc(Oc3ccnc4[nH]c(C5(O)COC5)cc34)cnc21 [XIV-53]
< 500 | CCC1CN(C(=O)Nc2ccc(CN3CCN(CC)CC3)c(C(F)(F)F)c2)Cc2cc(Oc3ccnc4[nH]c(-c5cnn(C)c5)cc34)cnc21 (centres unmarked) [XIV-54]

IC50 [nM] | Structure (SMILES)
< 500 | CC[C@H]1CN(C(=O)Nc2ccc(CN3CCNCC3)c(C(F)(F)F)c2)Cc2cc(Oc3ccnc4[nH]c(CO)cc34)cnc21 [XIV-55]
< 500 | CC[C@@H]1CN(C(=O)Nc2ccc(CN3CCN(C)CC3)c(C(F)(F)F)c2)Cc2cc(Oc3ccnc4[nH]c(CO)cc34)cnc21 [XIV-56]
< 500 | CC[C@H]1CN(C(=O)Nc2ccc(CN3CCNCC3)c(C(F)(F)F)c2)Cc2cc(Oc3ccnc4[nH]c(C5CC5)cc34)cnc21 [XIV-58]
< 500 | CC[C@H]1CN(C(=O)Nc2ccc(CN3CCN(C)CC3)c(C(F)F)c2)Cc2cc(Oc3ccnc4[nH]c(C5CC5)cc34)cnc21 [XIV-59]
< 500 | CC[C@H]1CN(C(=O)Nc2ccc(CN3CCN(CCO)CC3)c(C(F)(F)F)c2)Cc2cc(Oc3ccnc4[nH]c(C5CC5)cc34)cnc21 [XIV-60]
< 500 | CCC1CN(C(=O)Nc2ccc(CN3CCN(CC)CC3)c(C(F)(F)F)c2)Cc2cc(Oc3ccnc4[nH]c(C5=CCOCC5)cc34)cnc21 (centres unmarked) [XIV-61]
< 500 | CCC1CN(C(=O)Nc2ccc(CN3CCN(CC)CC3)c(C(F)(F)F)c2)Cc2cc(Oc3ccnc4[nH]c(C5=CCOC5)cc34)cnc21 (centres unmarked) [XIV-62]
< 500 | CCC1CN(C(=O)Nc2ccc(CN3CCN(CC)CC3)c(C(F)(F)F)c2)Cc2cc(Oc3ccnc4[nH]c(C5CCOC5)cc34)cnc21 (centres unmarked) [XIV-63]
< 500 | CC[C@@H]1CN(C(=O)Nc2ccc(CN3CCNCC3)c(C(F)(F)F)c2)Cc2cc(Oc3ccnc4[nH]c(C5CC5)cc34)cnc21 [XIV-64]
< 500 | CC[C@@H]1CN(C(=O)Nc2ccc(CN3CCN(CCO)CC3)c(C(F)(F)F)c2)Cc2cc(Oc3ccnc4[nH]c(C5CC5)cc34)cnc21 [XIV-65]
> 10000 | CC[C@@H]1CN(C(=O)Nc2cnc(O[C@H]3CCN(C)C3)c(C(F)(F)F)c2)Cc2cc(Oc3ccnc4[nH]c(C)cc34)cnc21 [XIV-67]
< 500 | CC[C@@H]1CN(C(=O)Nc2cnc(O[C@@H]3CCN[C@H](C)C3)c(C(F)(F)F)c2)Cc2cc(Oc3ccnc4[nH]c(C)cc34)cnc21 [XIV-69]
< 500 | CCC1CN(C(=O)Nc2ccc(CN3CCN(CC)CC3)c(C(F)(F)F)c2)Cc2cc(Oc3ccnc4[nH]c(C5CCOCC5)cc34)cnc21 (centres unmarked) [XIV-70]
500 to 5000 | CC[C@@H]1CN(C(=O)Nc2cnc(O[C@H]3CCN[C@@H](C)C3)c(C(F)(F)F)c2)Cc2cc(Oc3ccnc4[nH]c(C)cc34)cnc21 [XIV-71]
< 500 | CC[C@H]1CN(C(=O)Nc2ccc(CN3CCN(C)CC3)c(C(F)(F)F)c2)Cc2cc(Oc3ccnc4[nH]c(C5CC5)cc34)cnc21 [XIV-72]
< 500 | CC[C@@H]1CN(C(=O)Nc2ccc(CN3CCN(C)CC3)c(C(F)(F)F)c2)Cc2cc(Oc3ccnc4[nH]c(C5CC5)cc34)cnc21 [XIV-73]
< 500 | C[C@@H]1CN(C(=O)Nc2ccc(CN3CCN(C)CC3)c(C(F)(F)F)c2)Cc2cc(Oc3ccnc4[nH]c(CO)cc34)cnc21 [XIV-75]
< 500 | CC[C@@H]1CN(C(=O)Nc2ccc(CN3CCN(CC)CC3)c(C(F)(F)F)c2)Cc2cc(Oc3ccnc4[nH]c(C5(O)CC5)cc34)cnc21 [XIV-76]
